According to patent US10149470B2, “Methods and compositions for vein harvest and autografting” (Vanderbilt University, priority 2009, dated 2018):
Entries after “also recorded” stand apart in the source; their conditions may differ.

What was measured:
Assay type in all cases: cell-based
porcine saphenous vein [1] = test: KCl-induced contraction of porcine saphenous vein after stretch injury, with or without dye
Description: Freshly isolated porcine saphenous vein was collected in cold transplant harvest buffer (100 mM potassium lactobionate, 25 mM KH2PO4, 5 mM MgSO4, 30 mM raffinose, 5 mM adenosine, 3 mM glutathione, 1 mM allopurinol, 50 g/L hydroxyethyl starch, pH 7.4). The vessels were tested within 24 hours of harvest and storage in transplant harvest buffer at 4° C. The vein was dissected free of fat and connective tissue and cut into 2 cm long segments. The segments were stretched to twice their resting length (stretched; n=7) or not manipulated (control; n=12). After stretching, the segments from both groups were further divided. A solution of erioglaucine (FCF, 2.6 mM, in 5% propylene glycol and water) or vehicle was then applied with a cotton swab in a longitudinal line to the untreated (FCF; n=8) or the stretched (Stretched+FCF; n=3) vein segments. The segments were incubated at room temperature for 15 min in Plasmalyte and then cut into rings. The rings were suspended in a muscle bath containing a bicarbonate buffer (120 mM NaCl, 4.7 mM KCl, 1.0 mM MgSO4, 1.0 mM NaH2PO4, 10 mM glucose, 1.5 mM CaCl2, and 25 mM […], pH 7.4), bubbled with 95% O2/5% CO2 at 37° C. The rings were manually stretched to 4 g of tension, and maintained at a resting tension of 1 g and equilibrated for ˜2 hr.
Rings from stretched segments were either incubated with 50 μM Allura Red (+Red) or 50 μM of erioglaucine (+FCF) for 30 min. The rings were then allowed to equilibrate in the bicarbonate buffer for before contracting with 110 mM KCl. Force generated was converted to stress (10^5 N/m^2). Data represent relative contractile response to Control rings which was set as 100%.

human saphenous vein [2] = test: KCl-induced contraction of human saphenous vein rings treated with erioglaucine; settings: FIGS. 11A-B
Description: Effect of erioglaucine on human saphenous vein was determined using de-identified discarded segments of human saphenous vein from patients undergoing coronary artery bypass or peripheral vascular bypass surgery (n=4). The veins were stored in a saline solution until the end of the surgical procedure at which time they were placed in cold transplant harvest buffer (100 mM potassium lactobionate, 25 mM KH2PO4, 5 mM MgSO4, 30 mM raffinose, 5 mM adenosine, 3 mM glutathione, 1 mM allopurinol, 50 g/L hydroxyethyl starch, pH 7.4). The vessels were tested within 24 hrs of harvest storage in transplant harvest buffer at 4° C. To test the viability, rings 1.0 mm in width were cut from segments of saphenous vein dissected free of fat and connective tissue, treated with either a solution of erioglaucine (FCF, 2.6 mM, in 5% propylene glycol and water) or vehicle and incubated for 30 min at room temperature. The tissues were then stripped of the endothelium and suspended in a muscle bath containing a bicarbonate buffer, gassed with 95% O2/5% CO2 at 37° C. The rings were manually stretched to 4 g of tension, and was maintained at a resting tension of 1 g was obtained and equilibrated for ˜2 hr. […] The rings were contracted with 110 mM KCl (with equimolar replacement of NaCl in bicarbonate buffer), and the force generated was measured. […]

human saphenous vein [3] = test: BzATP-induced contraction of saphenous vein rings after erioglaucine pretreatment; settings: erioglaucine 50-200 μM for 30 min, then 100 μM BzATP; FIG. 12
Description: Human saphenous vein segments were collected after harvest before surgical manipulation from patients undergoing coronary artery bypass or peripheral vascular bypass surgery and stored in PlasmaLyte. The vessels were tested within 2 hours of harvest. Freshly isolated porcine saphenous vein was collected in cold transplant harvest buffer (100 mM potassium lactobionate, 25 mM KH2PO4, 5 mM MgSO4, 30 mM Raffinose, 5 mM Adenosine, 3 mM Glutathione, 1 mM Allopurinol, 50 g/L Hydroxyethyl starch, pH 7.4). The vessels were tested within 24 hours of harvest. Rings 1.0 mm in width were cut from porcine saphenous veins (FIG. 12A, n=2) and unmanipulated human saphenous vein (FIG. 12B, n=4) dissected free of fat and connective tissue. The rings were then stripped of the endothelium and suspended in a muscle bath containing a bicarbonate buffer, bubbled with 95% O2/5% CO2 at 37° C. The rings were manually stretched to 4 g of tension, and was maintained at a resting tension of 1 g was obtained and equilibrated for ˜2 hr. Force measurements were obtained using a Radnoti Glass Technology (Monrovia, Calif.) force transducer (159901A) interfaced with a Powerlab data acquisition system and Chart software (AD Instruments, Colorado Springs, Colo.). Rings were contracted with 110 mM KCl. […] Force was measured and converted to stress. Response was expressed as % of maximal KCl contraction. […]

human saphenous vein [4] = test: Intimal thickness of human saphenous vein rings in 14 day organ culture; settings: 50 μM erioglaucine, 14 days culture, compared to Control; FIG. 13
Description: Segments of human saphenous vein were collected prior to preparation of the vein for transplantation into the arterial circulation (unmanipulated, UM) and after surgical preparation (after manipulation, AM) from the same patients in PlasmaLyte and were used within 2 hr of harvest. The segment was cut into ˜1 mm rings and one ring from each group was fixed in formalin (Pre-culture). The other rings were cultured in RPMI medium supplemented with 1% L-glutamine, 1% penicillin/streptomycin and 30% fetal bovine serum at 5% CO2 and 37° C. in the absence (Control) or presence of 50 μM erioglaucine (FCF) for 14 days. After 14 days, the rings were fixed in formalin, sectioned at 5 μm and stained using Verhoff Van Gieson stain. Light micrograph of the rings was captured using an Axiovert 200 and intimal thickness was measured using AxioVision. Data represent % increase of intimal thickness related to basal intimal thickness of the pre-culture ring which was set as 0%. The error bars show the standard error of the mean.

porcine saphenous vein [5] = test: Intimal thickening of distended porcine saphenous vein rings in 14 day organ culture; settings: 50 μM dye, 14 days culture, distended to >300 mm Hg, compared to Distended-Control; FIG. 14
Description: Fresh porcine saphenous vein was harvested by a no touch method under sterile conditions and stored in cold transplant harvest buffer (100 mM potassium lactobionate, 25 mM KH2PO4, 5 mM MgSO4, 30 mM Raffinose, 5 mM Adenosine, 3 mM Glutathione, 1 mM Allopurinol, 50 g/L Hydroxyethyl starch, pH 7.4). The vessels were used within 24 hr of harvest. The veins were divided into three segments that were left untreated (Unmanipulated, n=7), distended (Distended, n=8) to >300 mm Hg, or distended in the presence of the pressure relief valve (Pop Off, n=7). Each segment was then cut into ˜1 mm rings and one ring from each condition was immediately fixed in formalin (Pre-culture). The other rings were cultured in RPMI medium supplemented with 1% L-glutamine, penicillin/streptomycin and 30% Fetal bovine serum at 5% CO2 and 37° C. in the absence (Control) or presence of either 50 μM erioglaucine (FCF), 50 μM brilliant blue G (BBG) or 50 μM Allura Red (Red) for 14 days. After 14 days, the rings were fixed in formalin, sectioned at 5 μm and stained using Verhoff Van Gieson stain. Light micrograph of the rings was captured using a Axiovert 200 and intimal thickness was measured using AxioVision.

In the case of `CCN(Cc1cccc(S(=O)(=O)[O-])c1)c1ccc(C(=C2C=CC(=[N+](CC)Cc3cccc(S(=O)(=O)[O-])c3)C=C2)c2ccccc2S(=O)(=O)[O-])cc1.[Na+].[Na+]` [erioglaucine], the “restoration of functional viability (contractile response to KCl) after stretch injury” value (porcine saphenous vein [1]; 50 μM dye for 30 min on rings from stretched segments, FIG. 10) is reported as “significantly restored contractile response”, the “restoration of functional viability after stretch injury (in words)” value (porcine saphenous vein [1]; FIG. 9) is reported as “restores functional viability” and the “smooth muscle viability (in words)” value (human saphenous vein [2]) is reported as “restores smooth muscle viability”. The BzATP induced contraction (human saphenous vein [3]) was “significantly inhibited BzATP induced contraction; also recorded: blocks BzATP-induced contraction”, the “development of intimal thickness” value (human saphenous vein [4]) was “inhibited the development of intimal thickness; also recorded: reduces intimal thickness” and the “distension induced increases in intimal thickening” value (porcine saphenous vein [5]) was “inhibited distension induced increases in intimal thickening; also recorded: reduces intimal layer thickening”.
